The record followed here is patent US8937055B2, “Heterocyclic ring compound having muscle cell or adipocyte differentiation regulating action” (Takeda Pharmaceutical Company Limited, priority 2010, dated 2015).

Test [1] has as its system differentiated C2C12 muscle cell. Kind of test: Sugar metabolism promoting activity in muscle cell (lactic acid production). It is filed as cell-based, mouse. Particulars: C2C12 myotube, 1 μM compound, 2 days; lactic acid concentration without compound = 100%. The method, then:
• (1) In the same manner as in Experimental Example 1, C2C12 cell was cultured in a growth medium. When the cells reached subconfluence, the medium was exchanged with a differentiation medium, and the cells were cultured for 3 to 4 days while exchanging the medium every 2 or 3 days until the cells differentiated to form a myotube. • (2) After confirmation of myotube formation under a microscope, the compound (1 μM) was added to a differentiation medium and cultured for 2 days. The cells were washed with Krebs-Ringer HEPES phosphate buffer (10 mM HEPES, pH 7.4, 131 mM NaCl, 4.7 mM KCl, 2.5 mM CaCl2-2H2O, 1.2 mM MgSO4-7H2O, 1.2 mM KH2PO4), the medium was exchanged with Krebs-Ringer HEPES phosphate buffer containing 5 mM glucose, 0.2% fatty acid-free bovine serum albumin, and the cells were cultured at 37° C. for 4 hr. • (3) The lactic acid concentration of the culture supernatant was measured using Detarminer LA kit (Kyowa Medex Co., Ltd.).
The numerical values in Table 4 show the lactic acid concentration of the compound addition group with the lactic acid concentration without addition of the compound as 100%.

Test [2] in a line: Anti-diabetes action in KKA^y mouse (glycohemoglobin). Type of test: in vivo, female KKA^y mouse. The note with it: 2 weeks, variation from value before administration, n=6. On the procedure: Female KKA^y mice (12-13 week-old, CLEA Japan, Inc.) were bred allowing free ingestion of both feed and water. The mice were acclimation bred with powder CE-2 (CLEA Japan, Inc.) from 2 weeks before administration of the test compound. The body weight, blood glycohemoglobin % (GHb %) value, plasma glucose, triglyceride and total cholesterol concentration were measured, and the mice were divided into 3 groups or 5 groups (6 mice/group) such that those measurement values are uniform at the start of the administration. The compound was administered by mixing (0.01-0.03%) in the feed for 2 weeks. GHb % was measured on the last day. GHb % was measured using Tosoh Corporation automatic glycohemoglobin analyzer (HLC-723GHbV Alc2.2). The numerical values in Table 11 show the variation from the value before administration to the measured value after administration in mean±standard deviation at n=6 (n is the number of mice).

Test [3] has as its system Mouse-derived myoblast line C2C12 cell. Kind of test: Cell differentiation promoting activity in myoblast (creatine kinase activity). It is filed as cell-based. The note with it: 48 h, 1 μM compound, 2 days in differentiation medium, CK activity without compound = 100%, read-out: creatinine kinase activating action (%). On the procedure:
• (1) Mouse-derived myoblast line C2C12 cell (Dainippon Pharmaceutical Co., Ltd.) was subcultured in a high glucose Eagle's modified Dulbecco's medium (GIBCO) containing 10% calf fetal bovine serum (GIBCO), 100 unit/mL penicillin and 100 μg/mL streptomycin (hereinafter to be referred to as a growth medium), plated at 5000 cells/cm^2 and cultured at 37° C., under 5% CO2. • (2) When the cells reached subconfluence, the medium was exchanged with a high glucose Eagle's modified Dulbecco's medium (GIBCO) containing 2% horse serum (GIBCO) and penicillin, streptomycin and a test compound (hereinafter to be referred to as a differentiation medium), and the cells were cultured for 2 days. To the control group was added DMSO solution instead of the test compound. • (3) The cells were washed with PBS, 0.5% NP-40 solution was added thereto, and the cells were lysed by freeze-thawing. The cell extract was centrifuged, and the creatine kinase activity in the supernatant was measured as an index of muscle differentiation. The creatine kinase activity was measured using CPKII Test Wako (Wako Pure Chemical Industries, Ltd.) according to the manual of the kit. The tests using the compounds of Example 7 to Example 14 were corrected based on the total protein amount measured using CA Protein Assay Kit (Thermo Scientific).
The numerical values in Table 3 show CK activity of the compound addition group with the CK activity without addition of the compound as 100%, and 1 μM of the compound was added for the measurement.

The subject of a further test is NF-kB. Put plainly: NF-kB activation suppressive action in muscle cell (luciferase reporter, TNF-α induced). It is filed as cell-based, mouse. The note with it: TNF-α 10 ng/mL, activity without TNF-α = 1, n=8. On the procedure: • (1) C2C12 cells introduced with NF-kB reporter plasmid (C2C12/NF-kB-luc, Panomics) was plated at 20000 cells/cm^2, 100 μg/ml hygromycin was added thereto, and the cells were cultured in a growth medium in the same manner as in Example 1. • (2) The cells were cultured in a differentiation medium containing the compound of Example 1, Example 8, Example 9, Example 10 or Example 11 for 1 hr, TNF-α was added thereto such that the concentration is 10 ng/mL, and the cells were cultured for 4 hr. • (3) The luciferase activity in the medium was measured using a Stedy-Glo luciferase assay system (Promega). The NF-kB activity was evaluated by measuring the luciferase activity.
The data in Table 6 to Table 10 show mean±standard deviation at n=8 (n is the number of samples).
(In general: In a reporter assay the amount or activity of a reporter protein is the signal.)

As for `Cc1nnc(CCc2ccc(NC(=O)/C=C/c3cnccc3-c3ccc(F)cc3)cc2)o1` [Example 3, (2E)-3-[4-(4-fluorophenyl)pyridin-3-yl]-N-{4-[2-(5-methyl-1,3,4-oxadiazol-2-yl)ethyl]phenyl}prop-2-enamide], in test [1], the “lactic acid production promoting action (%)” value is on record as 175.4%. The “GHb change (%)” value in test [2] (0.03% mixed with feed) is listed as −0.3%. Also, the activity at 1 µM in test [3] is 249%.

Take `O=C(/C=C/c1cncnc1-c1ccc(F)cc1)Nc1ccc(CCc2nnco2)cc1` [Example 4, (2E)-3-[4-(4-fluorophenyl)pyrimidin-5-yl]-N-{4-[2-(1,3,4-oxadiazol-2-yl)ethyl]phenyl}prop-2-enamide]: the “lactic acid production promoting action (%)” value in test [1] was found to be 222.9%. In addition, the “GHb change (%)” value in test [2] (0.03% mixed with feed) was −0.7%. Also, the activity at 1 µM in test [3] is 249%.

Turning to `COc1ccc(-c2ncncc2/C=C/C(=O)Nc2ccc(CCc3nnco3)cc2)cc1` [Example 5, (2E)-3-[4-(4-methoxyphenyl)pyrimidin-5-yl]-N-{4-[2-(1,3,4-oxadiazol-2-yl)ethyl]phenyl}prop-2-enamide], the “lactic acid production promoting action (%)” value in test [1] amounted to 233.3%. In test [2] (0.03% mixed with feed), the “GHb change (%)” value is given as −0.3%. Moreover, the activity at 1 µM in test [3] was determined as 290%.

Take `O=C(/C=C/c1cnccc1-c1ccc(F)cc1)Nc1ccc(CN2CCOCC2)cc1` [Example 6, (2E)-3-[4-(4-fluorophenyl)pyridin-3-yl]-N-[4-(morpholin-4-ylmethyl)phenyl]prop-2-enamide]: the “lactic acid production promoting action (%)” value in test [1] is 216.7%. The “GHb change (%)” value in test [2] (0.02% mixed with feed) is −1.2%. Moreover, the activity at 1 µM in test [3] came to 299%.

In the case of `CS(=O)(=O)Cc1ccc(NC(=O)/C=C/c2cnccc2-c2ccc(F)cc2)cc1` [Example 7, (2E)-3-[4-(4-fluorophenyl)pyridin-3-yl]-N-{4-[(methylsulfonyl)methyl]phenyl}prop-2-enamide], the activity at 1 µM in test [3] was determined as 197%.

As for `O=C(/C=C/c1cnccc1-c1ccc(F)cc1)Nc1ccc(Cn2cnc3ccccc32)cc1` [Example 8, (2E)-N-[4-(1H-benzimidazol-1-ylmethyl)phenyl]-3-[4-(4-fluorophenyl)pyridin-3-yl]prop-2-enamide], the “NF-κB activity (multiple)” value worked out at 9.4 multiple in the test on NF-kB (0.001 μM compound); 9.7 multiple with NF-kB (0.003 μM compound); 10.8 multiple in the test on NF-kB (0.01 μM compound); 10.6 multiple in the test with NF-kB (0.03 μM compound); 9.4 multiple in the test with NF-kB (0.1 μM compound); 7.6 multiple in the test with NF-kB (0.3 μM compound). Besides, the figures for the “NF-κB activity (multiple)” value in the test on NF-kB (1 μM compound), in the test on NF-kB (3 μM compound) and in the test with NF-kB (10 μM compound) were 7.1 multiple, 6.6 multiple and 6.1 multiple, respectively. Further, the activity at 1 µM in test [3] is 197%.

On to `O=C(/C=C/c1cnccc1-c1ccc(F)cc1)Nc1ccc(Cn2ccnc2)cc1` [Example 9, (2E)-3-[4-(4-fluorophenyl)pyridin-3-yl]-N-[4-(1H-imidazol-1-ylmethyl)phenyl]prop-2-enamide], for which the “NF-κB activity (multiple)” value with NF-kB (0.001 μM compound) worked out at 11.8 multiple; in the test with NF-kB (0.003 μM compound) it was 13.0 multiple; in the test on NF-kB (0.01 μM compound) it was 12.1 multiple; in the test with NF-kB (0.03 μM compound), 13.1 multiple; in the test on NF-kB (0.1 μM compound), 13.0 multiple; with NF-kB (0.3 μM compound) it was 10.2 multiple. In addition, the “NF-κB activity (multiple)” value was determined as 8.4 multiple in the test on NF-kB (1 μM compound), 7.6 multiple with NF-kB (3 μM compound) and 6.9 multiple with NF-kB (10 μM compound). Moreover, in test [3], the activity at 1 µM was 208%.

Turning to `O=C(/C=C/c1cnccc1-c1ccc(F)cc1)Nc1ccc(OCc2nnco2)cc1` [Example 10, (2E)-3-[4-(4-fluorophenyl)pyridin-3-yl]-N-[4-(1,3,4-oxadiazol-2-ylmethoxy)phenyl]prop-2-enamide], the “NF-κB activity (multiple)” value was 10.0 multiple with NF-kB (0.001 μM compound); 10.2 multiple with NF-kB (0.003 μM compound); 10.5 multiple in the test on NF-kB (0.01 μM compound); 10.5 multiple with NF-kB (0.03 μM compound); 9.6 multiple in the test with NF-kB (0.1 μM compound); 7.8 multiple in the test with NF-kB (0.3 μM compound). Moreover, the entries for the “NF-κB activity (multiple)” value in the test on NF-kB (1 μM compound), in the test on NF-kB (3 μM compound) and with NF-kB (10 μM compound) were 7.5 multiple, 6.9 multiple and 6.2 multiple, respectively. Besides, in test [3], the activity at 1 µM amounted to 164%.

Consider `CCOP(=O)(Cc1ccc(NC(=O)/C=C/c2cnccc2-c2ccccc2)cc1)OCC` [Example 11, diethyl (4-{[(2E)-3-(4-phenylpyridin-3-yl)prop-2-enoyl]amino}benzyl)phosphonate], for which the “NF-κB activity (multiple)” value in the test on NF-kB (0.001 μM compound) was found to be 9.7 multiple; with NF-kB (0.003 μM compound) it was 10.8 multiple; in the test on NF-kB (0.01 μM compound), 10.5 multiple; in the test with NF-kB (0.03 μM compound) it was 10.6 multiple; in the test on NF-kB (0.1 μM compound) it was 10.6 multiple; in the test on NF-kB (0.3 μM compound) it was 9.0 multiple. For the same compound, the “NF-κB activity (multiple)” value came to 7.3 multiple in the test with NF-kB (1 μM compound), 7.0 multiple in the test with NF-kB (3 μM compound) and 5.2 multiple in the test on NF-kB (10 μM compound). Also, the activity at 1 µM in test [3] stood at 189%.

`COP(=O)(Cc1ccc(NC(=O)/C=C/c2cnccc2-c2ccccc2)cc1)OC` [Example 12, dimethyl (4-{[(2E)-3-(4-phenylpyridin-3-yl)prop-2-enoyl]amino}benzyl)phosphonate]: the activity at 1 µM in test [3] is 189%.

`CCOP(=O)(Cc1ccc(NC(=O)/C=C/c2cnccc2-c2ccc(F)cc2)cc1)OCC` [Example 13, diethyl [4-({(2E)-3-[4-(4-fluorophenyl)pyridin-3-yl]prop-2-enoyl}amino)benzyl]phosphonate]: the activity at 1 µM in test [3] came to 184%.

Turning to `COP(=O)(Cc1ccc(NC(=O)/C=C/c2cnccc2-c2ccc(F)cc2)cc1)OC` [Example 14, dimethyl [4-({(2E)-3-[4-(4-fluorophenyl)pyridin-3-yl]prop-2-enoyl}amino)benzyl]phosphonate], in test [3], the activity at 1 µM was 205%.
